The results in this text go back to publication PMC3917258, “6-Bromoisatin Found in Muricid Mollusc Extracts Inhibits Colon Cancer Cell Proliferation and Induces Apoptosis, Preventing Early Stage Tumor Formation in a Colorectal Cancer Rodent Model” (Marine Drugs, 2013).

For test [1], the system named is HT29 cells. The test can be described thus: Light microscopy of cell morphology (apoptosis). In kind it is cell-based, human. Conditions: 12 h. How it is done: (§1) The cells were harvested from flasks by trypsinization (1× Trypsin-EDTA) and were seeded (20,000 cells/well) into clear 96-well plates (Costar®, Mt Martha, VIC, Australia) for measurement of cell viability and white (opaque) 96-well plates (Interpath, Heidelberg West, VIC, Australia) for determination of apoptosis and necrosis. HT29 cells were incubated for 48 h, then the media was removed and the cells were washed with PBS. To treat the cells, synthetic 6-bromoisatin was dissolved in 100% dimethylsulphoxide (DMSO) then diluted in media and added to the cells at a range of concentrations from 0.1 to 0.01 mg/mL, in triplicate (final DMSO concentration of 1%). 1% DMSO controls were also included on each plate. Staurosporine (5 µM) for apoptosis and lysis solution (5 μL/well, Promega, Alexandria, NSW, Australia) for necrosis were added to the white plates in triplicate, as positive controls. All cells were treated for 12 h. Morphological changes in the cells were observed on an Olympus CK2 inverted optical microscope (×400 magnification) 12 h after treatment. To measure cell viability, the MTT assay was applied, which measures the reduction of MTT tetrazolium salt to formazan, as previously described. To measure necrosis and apoptosis, CytoTox-ONE Homogeneous Membrane Integrity Assay reagent (Promega) and Caspase-Glo 3/7® assay (Promega) were applied respectively, according to our previous study. These assays were all repeated in triplicate on three separate occasions (n = 3).

Test [2] relates to distal colonic epithelial cells. The test can be described thus: AARGC mouse model: Ki-67 proliferation index. In kind it is in vivo, mice (C57BL/6J). The note with it: distal colon, compared to oil control. How it is done: (§2) This experiment was conducted under Flinders animal welfare approval number 751-10. A total of 38 wild-type (C57BL/6J) male mice aged 10 weeks were obtained from the Animal Resource Centre, Perth, Western Australia. Mice were divided randomly into 4 groups (ten mice in each treatment group and 8 mice in the sunflower oil only control group) and housed in 8 cages (four to five mice per cage). The mice were given water and food (rodent chow) ad libitum and maintained at the temperature of 22 ± 2 °C and humidity of 80% ± 10% with a 12 h light/dark cycle. Mice were weighed every five days and on the day of kill, and monitored daily for signs of illness, such as weight and hair loss, diarrhea, constipation, rectal bleeding, labored breathing, lethargy, eye and nose discharge.
To detect the early stage prevention of colon cancer, an established AARGC rodent model with injection of the carcinogen AOM was used. Synthetic 6-bromoisatin at 3 different dosages (0.025, 0.05 and 0.1 mg/g body weight) was administered to mice by daily oral gavage in 100 µL sunflower oil, containing 0.02% Vitamin E, for two weeks. The control group was gavaged with sunflower oil (containing 0.02% Vitamin E) only. After two weeks, all mice were injected with a single intraperitoneal (i.p.) injection of AOM at a dosage of 10 mg/kg bodyweight and euthanized 6 h later by cervical dislocation under anesthesia. […] The distal colon of each mouse was excised and fixed in 10% buffered formalin for 24 h and then embedded in paraffin for histological and immunohistological examination.
Ki-67 is a cell cycle associated antigen and regarded as a useful proliferation marker. Proliferative activity of distal colonic epithelial cells was measured using an antibody specific for the nuclear proliferating antigen ki-67 (rat-anti-mouse clone TEC-3, Dako, Campbellfield, VIC, Australia) in combination with an immunohistochemistry detection method in paraffin embedded sections, as previously described. […]

The test system of test [3] is caspase 3/7 activity in HT29 cells. Briefly: Caspase-Glo 3/7 assay. In kind it is cell-based, human. Conditions: 12 h. How it is done: as §1, with “All media and chemicals were purchased from Sigma Aldrich (Castle Hill, NSW, Australia) unless otherwise stated. HT29 human colorectal cancer cell line (passage no. 36-42) were cultured (37 °C and 5% CO2) in Dulbecco’s Modified Eagle’s Medium (DMEM) supplemented with 4500 mg/L L-glutamine, 10% FBS, 100 U/mL Penicillin/Streptomycin and 1% Non-essential Amino Acid (100×), until the cells reached 70% confluence. The cells” for “The cells”

Test [4] has as its system distal colon crypts. The test can be described thus: AARGC mouse model: crypt height. In kind it is in vivo, mice (C57BL/6J). The note with it: 0.025-0.1 mg/g daily oral gavage 14 days, 6 h post AOM. How it is done:
as §2
To detect the early stage prevention of colon cancer, an established AARGC rodent model with injection of the carcinogen AOM was used. Synthetic 6-bromoisatin at 3 different dosages (0.025, 0.05 and 0.1 mg/g body weight) was administered to mice by daily oral gavage in 100 µL sunflower oil, containing 0.02% Vitamin E, for two weeks. […]
Distal colon segments were embedded in paraffin and sectioned at 4 µm (3–4 sections per mouse), then stained with hematoxylin, to evaluate apoptosis in epithelial cells of distal colon sections. […] The mean crypt column height was also determined.

In the case of `O=C1Nc2cc(Br)ccc2C1=O` [6-bromoisatin, 6-Bromoindole-2,3-dione], the cell morphology entry in test [1] (112 μM) is on record as “morphological alterations, such as chromatin condensation, characteristic of the apoptotic process”; in test [1] (223 μM), “morphological alterations, such as chromatin condensation, characteristic of the apoptotic process”; in test [1] (446 μM, in lower numbers than the two other doses), “Apoptotic cells were also observed”. Also, the cell proliferation entry in test [2] (0.025 mg/g daily oral gavage two weeks) is on record as “did not show a significant anti-proliferative effect”; in test [2] (0.05 mg/g daily oral gavage two weeks), “significantly reduced”. Also, in test [2] (0.1 mg/g daily oral gavage two weeks), the “reduction in cell proliferation” value is on record as “more than 50%”. The “caspase 3/7 activity” value in test [3] (446 μM = 0.1 mg/mL, compared to DMSO control) is on record as “minor but significant reduction”; in test [3] (concentrations <0.1 mg/mL), “did not increase caspase 3/7 activity”. Further, the colon crypt height result in test [4] is reported as “no significant effect”.
